Reference: the supplement of paper PMC9938120

Key:
Test in all cases: drug sensitivity score (DSS3, normalised partial AUC of % inhibition dose-response) (DSS (score)); higher = more sensitive (stronger inhibition of viability); extreme values may be limits of the assay
[1] = system: FMOC09 (patient-derived high-grade serous ovarian cancer cells); settings: 72 h; library: FO5A; assay format: 2D, 384-well, CellTiter-Glo
Summary of the method: (§1)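 The drug sensitivity score is calculated as a partial area under the percent-inhibition dose-response curve, divided by the log of the upper asymptote; higher scores mean more sensitive. For this score, early-passage (under 10) patient-derived ovarian cancer cells were exposed on 384-well flat clear-bottom plates to compounds at five concentrations across a 10,000-fold range for 72 h at 37 °C, 5% CO2. Viability was read with CellTiter-Glo and processed in Breeze.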

[2] = system: FMOC03 (patient-derived mucinous ovarian cancer cells); settings: 72 h; library: FO5A; assay format: 2D, 384-well, CellTiter-Glo
Summary of the method: as §1

[3] = system: FMOC02_3 (patient-derived low-grade serous ovarian cancer cells); settings: 72 h; library: FO5A; assay format: 2D, 384-well, CellTiter-Glo
Summary of the method: as §1

[4] = system: FMOC25_2 (patient-derived low-grade serous ovarian cancer cells); settings: 72 h; library: FO5A; assay format: 2D, 384-well, CellTiter-Glo
Summary of the method: as §1

[5] = system: FMOC02_1 (patient-derived low-grade serous ovarian cancer cells); settings: 72 h; library: FO5A; assay format: 2D, 384-well, CellTiter-Glo
Summary of the method: as §1

[6] = system: FMOC11 (patient-derived high-grade serous ovarian cancer cells); settings: 72 h; library: FO5A; assay format: 2D, 384-well, CellTiter-Glo
Summary of the method: as §1

[7] = system: FMOC24 (patient-derived high-grade serous ovarian cancer cells); settings: 72 h; library: FO5A; assay format: 2D, 384-well, CellTiter-Glo
Summary of the method: as §1

[8] = system: FMOC25_1 (patient-derived low-grade serous ovarian cancer cells); settings: 72 h; library: FO4B; assay format: 2D, 384-well, CellTiter-Glo
Summary of the method: as §1

[9] = system: FMOC27 (patient-derived low-grade serous ovarian cancer cells); settings: 72 h; library: FO5A; assay format: 2D, 384-well, CellTiter-Glo
Summary of the method: as §1

[10] = system: FMOC22 (patient-derived mucinous ovarian cancer cells); settings: 72 h; library: FO5A; assay format: 2D, 384-well, CellTiter-Glo
Summary of the method: as §1

[11] = system: FMOC04 (patient-derived high-grade serous ovarian cancer cells); settings: 72 h; library: FO5A; assay format: 2D, 384-well, CellTiter-Glo
Summary of the method: as §1

[12] = system: FMOC14 (patient-derived high-grade serous ovarian cancer cells); settings: 72 h; library: FO5A; assay format: 2D, 384-well, CellTiter-Glo
Summary of the method: as §1

[13] = system: FMOC28 (patient-derived low-grade serous ovarian cancer cells); settings: 72 h; library: FO5A; assay format: 2D, 384-well, CellTiter-Glo
Summary of the method: as §1

[14] = system: FMOC17 (patient-derived low-grade serous ovarian cancer cells); settings: 72 h; library: FO5A; assay format: 2D, 384-well, CellTiter-Glo
Summary of the method: as §1

[15] = system: FMOC02_2 (patient-derived low-grade serous ovarian cancer cells); settings: 72 h; library: FO5A; assay format: 2D, 384-well, CellTiter-Glo
Summary of the method: as §1

[16] = system: FMOC06 (patient-derived mucinous ovarian cancer cells); settings: 72 h; library: FO5A; assay format: 2D, 384-well, CellTiter-Glo
Summary of the method: as §1

SMILES | drug sensitivity score [1] | drug sensitivity score [2] | drug sensitivity score [3] | drug sensitivity score [4] | drug sensitivity score [5] | drug sensitivity score [6] | drug sensitivity score [7] | drug sensitivity score [8] | drug sensitivity score [9] | drug sensitivity score [10] | drug sensitivity score [11] | drug sensitivity score [12] | drug sensitivity score [13] | drug sensitivity score [14] | drug sensitivity score [15] | drug sensitivity score [16]
CNCc1ccc(-c2[nH]c3cc(F)cc4c3c2CCNC4=O)cc1 [Rucaparib] | 0 | 0 | 3.1 | 2.4 | 2.1 | 0 | 12.9 | 0.5 | 1.7 | 0 | 0 | 0.3 | 1.9 | 3.6 | 2.1 | 0
Clc1ccccc1C(c1ccccc1)(c1ccccc1)n1cccn1 [TRAM-34] | 0 | 0 | 0 | 0 | 0 | 0 | 0 | 0 | 0 | 0 | 0 | 0 | 1.5 | 0 | 0 | 0
CN1CCN(C2CCN(C(=O)Nc3cc(Oc4ccc(NC(=O)C5(C(=O)Nc6ccc(F)cc6)CC5)c(F)c4)ccn3)CC2)CC1 [Golvatinib] | 0 | 0.5 | 2.2 | 4.3 | 1.2 | 0 | 3.35 | 0.9 | 0 | 0 | 0.7 | 0 | 0 | 0.2 | 1.2 | 0
Cc1cc(Nc2nc(N[C@@H](C)c3ncc(F)cn3)ncc2Cl)[nH]n1 [AZD1480] | 0 | 0 | 1.6 | 0.3 | 0.8 | 0 | 0 | 0 | 0 | 0 | 0 | 0 | 0 | 0.1 | 0.8 | 0
CNC(=O)c1ccc(C)c(-n2c(C)cc(OCc3ccc(F)cc3F)c(Br)c2=O)c1 | 0 | 0 | 0 | 0 | 0 | 0 | 0 | 0 | 0 | 0 | 0 | 0 | 0 | 0.3 | 0 | 0
CCCCCOC(=O)Nc1nc(=O)n([C@@H]2O[C@H](C)[C@@H](O)[C@H]2O)cc1F [Capecitabine] | 0 | 0.4 | 0 | 0.7 | 0 | 0.1 | 0.6 | 0 | 0 | 2.5 | 1.95 | 0.7 | 0 | 0.5 | 0 | 0
Cc1cc(C)c(CNC(=O)c2cc(-c3ccc(CN4CCOCC4)cc3)cc3c2cnn3C2CCCC2)c(=O)[nH]1 [EPZ-5687] | 0 | 0.6 | 1.5 | 1.8 | 0.4 | 0 | 1.7 | 0 | 3.1 | 0.6 | 0.05 | 0 | 5.1 | 0.1 | 0.9 | 0
CC(C)(C)c1cc(NC(=O)Nc2ccc(-c3cn4c(n3)sc3cc(OCCN5CCOCC5)ccc34)cc2)no1 [Quizartinib] | 0 | 0.8 | 0.6 | 0.6 | 2 | 0 | 3.85 | 0.7 | 0.5 | 0 | 0.45 | 0 | 0.3 | 1 | 0.7 | 0.3
CC(C)(O)CC(=O)NCCn1ccc2ncnc(Nc3ccc(Oc4cccc(C(F)(F)F)c4)c(Cl)c3)c21 [TAK-285] | 3.7 | 5.1 | 5.3 | 4.8 | 6.2 | 2.7 | 0.9 | 5 | 4.3 | 0 | 0 | 1 | 2.4 | 4.5 | 8.6 | 1.3
COc1cc2nccc(Oc3ccc(NC(=O)Nc4cc(C)on4)c(Cl)c3)c2cc1OC [Tivozanib] | 0.4 | 2.2 | 3.3 | 3.2 | 5 | 1.9 | 0.9 | 1.9 | 1.5 | 1.2 | 0.3 | 0.5 | 0.5 | 2.8 | 3 | 2.3
Cc1ccc(C(=O)Nc2ccc(Oc3cc4cnn(C)c4cc3-c3cn[nH]c3)c(F)c2)c(=O)n1-c1ccc(F)cc1 [Merestinib] | 1.6 | 1.3 | 4.4 | 4 | 1.1 | 0 | 1.15 | 2.7 | 0 | 0 | 0 | 0 | 1.4 | 0.3 | 1.9 | 1.1
CCc1c(C(=O)C(N)=O)c2c(OCC(=O)O)cccc2n1Cc1ccccc1 [Varespladib] | 0 | 0 | 0 | 0 | 0 | 0 | 0.1 | 0 | 0 | 0 | 0 | 0 | 0 | 0 | 0 | 0
CCN1CCN(Cc2ccc(Nc3ncc(F)c(-c4cc(F)c5nc(C)n(C(C)C)c5c4)n3)nc2)CC1 [Abemaciclib] | 2.1 | 2.3 | 11.6 | 7.5 | 7 | 0.8 | 1.7 | 0.1 | 3.2 | 0 | 0.35 | 0.1 | 0 | 3.4 | 6.6 | 4
CC[C@H](C)C(=O)O[C@H]1C[C@H](O)C=C2C=C[C@H](C)[C@H](CC[C@@H](O)C[C@@H](O)CC(=O)O)[C@H]21 [Pravastatin] | 0 | 0 | 0 | 0 | 0 | 0 | 0.35 | 0 | 0 | 0 | 0 | 0 | 0 | 0 | 0 | 0.8
CN(C)CCOc1ccc(/C(=C(/CCCl)c2ccccc2)c2ccccc2)cc1 [Toremifene] | 3.8 | 5.3 | 7.1 | 2.2 | 6 | 4.3 | 7 | 2.2 | 1.9 | 5.3 | 4 | 5.2 | 2.4 | 3.3 | 5.3 | 7.4
O=C(c1cccc(Cl)c1F)N1CCN(Cc2cccc(Nc3nccs3)n2)CC1 [MK-8745] | 0.2 | 1.3 | 5.7 | 4 | 7.1 | 4 | 0.2 | 0 | 0 | 1.8 | 1.3 | 0.2 | 5.8 | 2.1 | 6.1 | 0
CCN(c1cc(-c2ccc(CN3CCOCC3)cc2)cc(C(=O)NCc2c(C)cc(C)[nH]c2=O)c1C)C1CCOCC1 [Tazemetostat] | 0 | 0 | 0.1 | 0 | 0 | 0 | 0 | 0 | 0 | 0 | 0 | 0 | 0 | 0 | 0 | 0.5
O=C(c1ccc(OCCN2CCCCC2)cc1)c1c(-c2ccc(O)cc2)sc2cc(O)ccc12 [Raloxifene] | 0.7 | 0.7 | 4.5 | 3.7 | 5.5 | 2.9 | 8.45 | 1.7 | 0.2 | 1.2 | 1.95 | 2.6 | 0 | 1.8 | 5.8 | 4.5
Clc1ccc(C(c2ccccc2Cl)C(Cl)Cl)cc1 (centres undefined) [Mitotane] | 0 | 0 | 0 | 0 | 0 | 0 | 0 | 0 | 0 | 0 | 0 | 0 | 0 | 0 | 0 | 0
COc1cc2c(N3CCN(C(=O)Nc4ccc(OC(C)C)cc4)CC3)ncnc2cc1OCCCN1CCCCC1 [Tandutinib] | 0 | 0 | 0 | 0 | 0 | 0 | 0.75 | 0 | 0 | 0 | 0 | 0 | 1.4 | 0 | 0 | 0
CS(=O)(=O)c1ccc(-c2cnc(N)c(C(=O)Nc3ccccc3)n2)cc1 [VE-821] | 0 | 0 | 0.2 | 2.2 | 3.3 | 0 | 3.65 | 0.6 | 1.3 | 0 | 0 | 1.9 | 0 | 0 | 0.8 | 0
CC(C)(C)c1nc(-c2cccc(NS(=O)(=O)c3c(F)cccc3F)c2F)c(-c2ccnc(N)n2)s1 [Dabrafenib] | 0 | 0 | 4.7 | 4 | 5.9 | 0 | 0 | 1.8 | 0 | 0 | 0 | 0 | 1.4 | 0.1 | 0.8 | 0
Nc1cccc2c1CN(C1CCC(=O)NC1=O)C2=O (centres undefined) [Lenalidomide] | 0 | 0 | 2.4 | 0 | 0 | 0 | 0.6 | 0 | 0 | 0 | 0 | 0 | 0 | 0 | 0 | 0.1
Oc1ncnc2[nH]ncc12 [Allopurinol] | 0 | 0 | 0 | 0 | 0 | 0 | 0 | 1.3 | 0 | 0 | 0 | 0 | 0 | 0 | 0 | 0
